Laboratory results reported in ChEMBL document CHEMBL1201862, “PubChem BioAssay data set” (2004).
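Step 1: Grow cells in 96-well plates. Step 2: Expose to compound for 48 hours at 5 concentrations. Step 3: Interpolate endpoints linearly; if unreached, use highest concentration. The concentration for 50% growth inhibition is given as GI50.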 Activity calls are given as the source filed them. No stated cut-off is given here; in the data, active = GI50 up to about 1.1 µM and inactive = higher.

Columns and labels:
Assay in all cases: growth of human tumour cells (NCI), 48 h
A498 = tested on: A498
ACHN = tested on: ACHN
CCRF-CEM = tested on: CCRF-CEM
EKVX = tested on: EKVX
Hs-578T = tested on: Hs-578T
IGROV-1 = tested on: IGROV-1
K562 = tested on: K562
M14 = tested on: M14
MDA-MB-435 = tested on: MDA-MB-435
MDA-N = tested on: MDA-N
Malme-3M = tested on: Malme-3M
NCI-H522 = tested on: NCI-H522
SK-MEL-28 = tested on: SK-MEL-28
SK-MEL-5 = tested on: SK-MEL-5
SK-OV-3 = tested on: SK-OV-3
SN12C = tested on: SN12C
SNB-19 = tested on: SNB-19
SW-620 = tested on: SW-620
U-251 = tested on: U-251
SF-539 = tested on: SF-539

SMILES | GI50 (A498) | GI50 (ACHN) | GI50 (CCRF-CEM) | GI50 (EKVX) | GI50 (Hs-578T) | GI50 (IGROV-1) | GI50 (K562) | GI50 (M14) | GI50 (MDA-MB-435) | GI50 (MDA-N) | GI50 (Malme-3M) | GI50 (NCI-H522) | GI50 (SK-MEL-28) | GI50 (SK-MEL-5) | GI50 (SK-OV-3) | GI50 (SN12C) | GI50 (SNB-19) | GI50 (SW-620) | GI50 (U-251) | GI50 (SF-539)
CCOC(=O)[C@H](C)OC(=O)[C@@](C)(NC(=O)c1ccccc1C(=O)OC)[C@@H]1NC=C(C(=O)OC)CS1 | > 100 µM (inactive) | > 100 µM (inactive) | 20.3 µM (inactive) | > 100 µM (inactive) | > 100 µM (inactive) | 80 µM (inactive) | 36.5 µM (inactive) | > 100 µM (inactive) | 27.6 µM (inactive) | 21.9 µM (inactive) | 97.3 µM (inactive) | > 100 µM (inactive) | > 100 µM (inactive) | 74.1 µM (inactive) | > 100 µM (inactive) | > 100 µM (inactive) | > 100 µM (inactive) | > 100 µM (inactive) | > 100 µM (inactive) | 
CN(C)c1ccc(C(=NN)c2ccc(N(C)C)cc2)cc1 | 4.93 µM (inactive) | 8.3 µM (inactive) | 0.394 µM (active) | 4.74 µM (inactive) | 2.33 µM (inactive) | 0.746 µM (active) | 0.229 µM (active) | 0.504 µM (active) | 0.0416 µM (active) | 0.0818 µM (active) | 53.3 µM (inactive) | 0.25 µM (active) | > 66.1 µM (inactive) | 0.447 µM (active) | 1.84 µM (inactive) | 2.56 µM (inactive) | 2.2 µM (inactive) | 0.462 µM (active) | 0.486 µM (active) | 
CN1CCN(c2ccc3[nH]c(-c4ccc5[nH]c(-c6ccc(N(C)CCCl)cc6)nc5c4)nc3c2)CC1 | 2.56 µM (inactive) | 0.942 µM (active) | < 0.01 µM (active) |  | 0.206 µM (active) | 0.0382 µM (active) | 0.191 µM (active) | 1.08 µM (active) | 0.144 µM (active) | 0.226 µM (active) | 0.208 µM (active) | 0.0163 µM (active) | 0.32 µM (active) | 0.18 µM (active) | 0.196 µM (active) | 0.0461 µM (active) | 0.0538 µM (active) | 0.14 µM (active) | 0.0429 µM (active) | 0.109 µM (active)
O=c1ccc(-c2ccc(-n3ccnc3)cc2)nn1CCO | > 100 µM (inactive) | > 100 µM (inactive) | > 100 µM (inactive) | 46.6 µM (inactive) | > 100 µM (inactive) | > 100 µM (inactive) |  | > 100 µM (inactive) | > 100 µM (inactive) | > 100 µM (inactive) | > 100 µM (inactive) | > 100 µM (inactive) | > 100 µM (inactive) | > 100 µM (inactive) | > 100 µM (inactive) | > 100 µM (inactive) | > 100 µM (inactive) | > 100 µM (inactive) | > 100 µM (inactive) | > 100 µM (inactive)
C=C(CN(C)C)C(=O)c1ccccc1[N+](=O)[O-] | > 57.8 µM (inactive) | 16.1 µM (inactive) |  | > 43.5 µM (inactive) | 22.9 µM (inactive) | 22.2 µM (inactive) | 3.39 µM (inactive) | 15.5 µM (inactive) | 16.1 µM (inactive) | 14.5 µM (inactive) | 7.76 µM (inactive) | 3.56 µM (inactive) | 17.6 µM (inactive) | 18.8 µM (inactive) | 37.2 µM (inactive) | 17.7 µM (inactive) | > 56.4 µM (inactive) | 11.3 µM (inactive) | 32.2 µM (inactive) | 39.7 µM (inactive)
Clc1ccc(COC(Cn2ccnc2)c2ccc(Cl)cc2Cl)cc1 (stereo not drawn) [ECONAZOLE] | 14.2 µM (inactive) | 15.5 µM (inactive) | 8.49 µM (inactive) | 11.8 µM (inactive) | 17 µM (inactive) | 11.9 µM (inactive) | 4.76 µM (inactive) | 15 µM (inactive) | 11.8 µM (inactive) | 14.1 µM (inactive) | 12.3 µM (inactive) | 4.57 µM (inactive) | 17.2 µM (inactive) |  | 13.8 µM (inactive) | 12.5 µM (inactive) | 14.3 µM (inactive) | 12.1 µM (inactive) | 13.2 µM (inactive) | 18.8 µM (inactive)
O=c1ccc2ccc(O)cc2o1 [UMBELLIFERONE] | > 100 µM (inactive) | > 100 µM (inactive) | > 100 µM (inactive) | > 100 µM (inactive) | > 100 µM (inactive) | > 100 µM (inactive) |  | > 100 µM (inactive) | > 100 µM (inactive) | > 100 µM (inactive) | > 100 µM (inactive) | > 100 µM (inactive) | > 100 µM (inactive) | > 100 µM (inactive) | > 100 µM (inactive) | > 100 µM (inactive) | > 100 µM (inactive) | > 100 µM (inactive) | > 100 µM (inactive) | > 100 µM (inactive)
